This experiment concerns the target human Nav1.8 (Homo sapiens, UniProt Q9Y5Y9). The experiment in a line: SyncroPatch384PE assay (automated patch clamp). It counts as cell-based. The note with it: human Nav1.8/b3 CHO cells.
Where [1] appears, read: inactivated state block (P2 measurement), read-out: P2 IC50.
[2] abbreviates: resting state block (P1 measurement), read-out: P1 IC50.

Counter-ions that a name gives are not always drawn. Like-named read-outs stand apart in the source and are kept apart here. Bounds are passed on as bounds.

Sequence of human Nav1.8 (Q9Y5Y9 whole entry): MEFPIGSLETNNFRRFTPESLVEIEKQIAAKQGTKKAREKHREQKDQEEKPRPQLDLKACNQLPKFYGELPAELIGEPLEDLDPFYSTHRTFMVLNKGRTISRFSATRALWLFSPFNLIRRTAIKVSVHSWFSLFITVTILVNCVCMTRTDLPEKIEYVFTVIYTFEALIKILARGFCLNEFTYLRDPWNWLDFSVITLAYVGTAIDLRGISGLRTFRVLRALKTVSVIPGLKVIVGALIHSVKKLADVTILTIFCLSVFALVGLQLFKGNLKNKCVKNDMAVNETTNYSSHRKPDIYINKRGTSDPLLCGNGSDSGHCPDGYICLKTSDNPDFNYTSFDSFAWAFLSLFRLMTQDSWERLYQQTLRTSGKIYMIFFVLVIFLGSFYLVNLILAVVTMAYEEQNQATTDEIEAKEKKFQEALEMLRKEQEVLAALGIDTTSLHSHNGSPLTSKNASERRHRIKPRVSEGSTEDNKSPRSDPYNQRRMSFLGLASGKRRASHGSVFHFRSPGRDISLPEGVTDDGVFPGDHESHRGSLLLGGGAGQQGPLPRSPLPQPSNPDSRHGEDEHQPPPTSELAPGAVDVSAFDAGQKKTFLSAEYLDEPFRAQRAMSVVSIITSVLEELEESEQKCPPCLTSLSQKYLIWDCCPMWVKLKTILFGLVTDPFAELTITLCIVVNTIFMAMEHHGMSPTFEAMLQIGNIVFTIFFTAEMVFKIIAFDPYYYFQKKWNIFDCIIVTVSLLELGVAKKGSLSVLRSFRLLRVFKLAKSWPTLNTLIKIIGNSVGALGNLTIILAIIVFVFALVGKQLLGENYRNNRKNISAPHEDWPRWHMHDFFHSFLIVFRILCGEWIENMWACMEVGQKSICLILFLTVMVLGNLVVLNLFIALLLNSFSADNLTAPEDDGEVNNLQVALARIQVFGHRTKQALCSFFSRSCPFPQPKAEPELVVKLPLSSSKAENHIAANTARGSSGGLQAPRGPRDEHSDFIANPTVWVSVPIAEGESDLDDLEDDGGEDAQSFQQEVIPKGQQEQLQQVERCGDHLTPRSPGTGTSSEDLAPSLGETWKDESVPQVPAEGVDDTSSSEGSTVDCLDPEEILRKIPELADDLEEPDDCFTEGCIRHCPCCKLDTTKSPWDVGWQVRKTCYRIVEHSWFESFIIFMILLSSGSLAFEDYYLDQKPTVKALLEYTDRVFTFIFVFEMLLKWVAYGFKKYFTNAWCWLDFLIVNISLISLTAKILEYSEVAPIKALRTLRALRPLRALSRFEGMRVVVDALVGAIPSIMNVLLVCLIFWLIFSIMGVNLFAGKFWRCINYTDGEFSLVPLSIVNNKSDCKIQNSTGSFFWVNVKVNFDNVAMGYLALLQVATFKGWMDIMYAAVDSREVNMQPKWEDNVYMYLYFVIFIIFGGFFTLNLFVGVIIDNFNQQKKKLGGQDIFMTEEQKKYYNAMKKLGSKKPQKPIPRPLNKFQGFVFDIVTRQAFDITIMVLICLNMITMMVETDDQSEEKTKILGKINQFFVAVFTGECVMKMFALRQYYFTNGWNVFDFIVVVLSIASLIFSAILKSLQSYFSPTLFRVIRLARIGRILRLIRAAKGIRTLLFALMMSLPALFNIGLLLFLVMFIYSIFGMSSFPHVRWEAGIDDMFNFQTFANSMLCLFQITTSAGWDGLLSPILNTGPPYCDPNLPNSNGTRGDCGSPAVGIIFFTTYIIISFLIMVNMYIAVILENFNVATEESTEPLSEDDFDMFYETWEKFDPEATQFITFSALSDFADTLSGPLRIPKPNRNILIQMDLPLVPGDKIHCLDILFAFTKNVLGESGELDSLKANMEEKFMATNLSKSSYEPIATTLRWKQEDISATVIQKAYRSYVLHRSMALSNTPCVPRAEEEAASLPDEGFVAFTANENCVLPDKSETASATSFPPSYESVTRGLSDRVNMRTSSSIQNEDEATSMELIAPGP

As to `Cc1c(C(F)(F)F)cnc(N2CCCC(F)(F)CC2)c1C(=O)Nc1ccnc([S@](C)(=N)=O)c1` (single isomer, unassigned) [Example 189], the IC50 (commonly the concentration at which inhibition is half-maximal) is, setting by setting: under setting [1], no more than 5 nM; under setting [2], no more than 5 nM.
Consider `C[S@](=N)(=O)c1cccc(NC(=O)c2c(N3CCCC(F)(F)CC3)cnc(C(F)(F)F)c2Cl)c1` [Example 207, (S)-3-chloro-5-(4,4-difluoroazepan-1-yl)-N-(3-(S-methylsulfonimidoyl)phenyl)-2-(trifluoromethyl)isonicotinamide], for which the IC50 by setting is: under setting [1], 5 to 50 nM; under setting [2], 5 to 50 nM.
With `Cc1c(C(F)(F)F)nnc(N2CCCC(F)(F)CC2)c1C(=O)Nc1ccnnc1` [Example 31, 3-(4,4-Difluoroazepan-1-yl)-5-methyl-N-(pyridazin-4-yl)-6-(trifluoromethyl)pyridazine-4-carboxamide], the IC50 under setting [1] was greater than 200 nM and the IC50 under setting [2] is greater than 200 nM.
For `Cc1c(-c2cnn(C)c2)cnc(N2CCCC(F)(F)CC2)c1C(=O)Nc1ccc(F)c([S@](C)(=N)=O)c1` [Example 214, (R)-2-(4,4-difluoroazepan-1-yl)-N-(4-fluoro-3-(S-methylsulfonimidoyl)phenyl)-4-methyl-5-(1-methyl-1H-pyrazol-4-yl)nicotinamide], the half-maximal inhibitory concentration (IC50) fell in the range of 100 to 200 nM under setting [1] and 100 to 200 nM under setting [2].
Regarding `Cc1c(C(F)(F)F)cnc(N2CCCC(F)(F)CC2)c1C(=O)Nc1ccnc([S@@](C)(=N)=O)c1` (single isomer, unassigned) [Example 188], the IC50 is, setting by setting: under setting [1], no more than 5 nM; under setting [2], no more than 5 nM.
`CS(=N)(=O)c1cccc(NC(=O)c2ccc(CC3CC3)nc2N2CCC3(CC2)CC3)c1` (stereo not shown) [Example 80, 6-(cyclopropylmethyl)-N-(3-(S-methylsulfonimidoyl)phenyl)-2-(6-azaspiro[2.5]octan-6-yl)nicotinamide]: the half-maximal inhibitory concentration (IC50) is, setting by setting: under setting [1], 5 to 50 nM; under setting [2], 5 to 50 nM.
Consider `Cc1c(C(F)(F)F)cnc(N2CCCC(F)(F)CC2)c1C(=O)Nc1cccc([S@@](C)(=O)=NC(=O)CN2CC(F)(F)C2)c1` [Example 202, (R)-2-(4,4-difluoroazepan-1-yl)-N-(3-(N-(2-(3,3-difluoroazetidin-1-yl)acetyl)-S-methylsulfonimidoyl)phenyl)-4-methyl-5-(trifluoromethyl)nicotinamide], for which the 50% inhibitory concentration (IC50) is no more than 5 nM under setting [1] and no more than 5 nM under setting [2].
For the molecule `CS(=O)(=O)c1cccc(NC(=O)c2nnc(C(F)(F)F)cc2N2CCCCCC2)c1` [Example 37, 4-(Azepan-1-yl)-N-(3-(methylsulfonyl)phenyl)-6-(trifluoromethyl)pyridazine-3-carboxamide], the IC50 is greater than 200 nM under setting [1] and greater than 200 nM under setting [2].
On to `Cc1c(C(=O)Nc2cccc([S@@](C)(=O)=NC(=O)CO)c2)c(N2CCCC(F)(F)CC2)nc(C(F)(F)F)c1-c1cnn(C)c1` [Example 191, (R)-2-(4,4-difluoroazepan-1-yl)-N-(3-(N-(2-hydroxyacetyl)-S-methylsulfonimidoyl)phenyl)-4-methyl-5-(1-methyl-1H-pyrazol-4-yl)-6-(trifluoromethyl)nicotinamide], for which the IC50 by setting is: under setting [1], no more than 5 nM; under setting [2], no more than 5 nM.
Consider `Cc1c(-c2cccc(F)c2)cnc(N2CCCC(F)(F)CC2)c1C(=O)Nc1cccc([S@@](C)(=N)=O)c1` [Example 111, (S)-2-(4,4-difluoroazepan-1-yl)-5-(3-fluorophenyl)-4-methyl-N-(3-(S-methylsulfonimidoyl)phenyl)nicotinamide], for which the half-inhibitory concentration (IC50) was no more than 5 nM under setting [1] and no more than 5 nM under setting [2].
On to `Cc1nc(N2CCCC(F)(F)CC2)c(C(=O)Nc2cccc(S(=N)(N)=O)c2)cc1C(F)(F)F` (stereo not shown) [Example 121, 2-(4,4-difluoroazepan-1-yl)-6-methyl-N-(3-sulfamidimidoylphenyl)-5-(trifluoromethyl)nicotinamide], for which the IC50 was no more than 5 nM under setting [1] and no more than 5 nM under setting [2].
Take `Cc1c(-c2nccs2)cnc(N2CCCC(F)(F)CC2)c1C(=O)Nc1cccc(S(C)(=N)=O)c1` (stereo not shown) [Example 98, 2-(4,4-difluoroazepan-1-yl)-4-methyl-N-(3-(S-methylsulfonimidoyl)phenyl)-5-(thiazol-2-yl)nicotinamide]: the IC50 under setting [1] fell in the range of 5 to 50 nM and the IC50 under setting [2] was 5 to 50 nM.
Consider `Cc1c(-c2cnn(C)c2)cnc(N2CCCC(F)(F)CC2)c1C(=O)Nc1cccc([S@@](C)(=O)=NC(=O)C(C)(C)N)c1` [Example 52, (R)-N-(3-(N-(2-amino-2-methylpropanoyl)-S-methylsulfonimidoyl)phenyl)-2-(4,4-difluoroazepan-1-yl)-4-methyl-5-(1-methyl-1H-pyrazol-4-yl)nicotinamide formate], for which the half-maximal inhibitory concentration (IC50) reads like this: under setting [1], 5 to 50 nM; under setting [2], 5 to 50 nM.
As for `CNCC(=O)N=[S@](C)(=O)c1cccc(NC(=O)c2c(N3CCCC(F)(F)CC3)ncc(C#N)c2C)c1` [Example 126, (R)-5-cyano-2-(4,4-difluoroazepan-1-yl)-4-methyl-N-(3-(S-methyl-N-(methylglycyl)sulfonimidoyl)phenyl)nicotinamide], the half-maximal inhibitory concentration (IC50) runs as follows: under setting [1], no more than 5 nM; under setting [2], no more than 5 nM.
In the case of `Cc1c(Cl)c(C(F)(F)F)nc(N2CCCC(F)(F)CC2)c1C(=O)Nc1cccc(S(C)(=N)=O)c1` (stereo not shown) [Example 41, 5-Chloro-2-(4,4-difluoroazepan-1-yl)-4-methyl-N-(3-(S-methylsulfonimidoyl)phenyl)-6-(trifluoromethyl)nicotinamide], the IC50 runs as follows: under setting [1], no more than 5 nM; under setting [2], no more than 5 nM.
For `Cc1c(C#N)c(C(F)(F)F)nc(N2CCCC(F)(F)CC2)c1C(=O)Nc1cccc([S@](C)(=N)=O)c1` [Example 56, (R)-5-cyano-2-(4,4-difluoroazepan-1-yl)-4-methyl-N-(3-(S-methylsulfonimidoyl)phenyl)-6-(trifluoromethyl)nicotinamide], the IC50 is, setting by setting: under setting [1], no more than 5 nM; under setting [2], no more than 5 nM.
Turning to `Cc1c(C(F)(F)F)nnc(N2CCCC(F)(F)CC2)c1C(=O)Nc1ccnc(S(C)(=N)=O)c1` (stereo not shown) [Example 102, 3-(4,4-difluoroazepan-1-yl)-5-methyl-N-(2-(S-methylsulfonimidoyl)pyridin-4-yl)-6-(trifluoromethyl)pyridazine-4-carboxamide], the IC50 by setting is: under setting [1], 5 to 50 nM; under setting [2], 5 to 50 nM.
As for `Cc1c(Cl)c(-c2cnn(C)c2)nc(N2CCCC(F)(F)CC2)c1C(=O)Nc1cccc([S@](C)(=N)=O)c1` [Example 162, (R)-5-chloro-2-(4,4-difluoroazepan-1-yl)-4-methyl-6-(1-methyl-1H-pyrazol-4-yl)-N-(3-(S-methylsulfonimidoyl)phenyl)nicotinamide], the half-inhibitory concentration (IC50) is no more than 5 nM under setting [1] and no more than 5 nM under setting [2].
As to `Cc1c(-c2cnn(C)c2)cnc(N2CCCC(F)(F)CC2)c1C(=O)NC12CC(C(N)=O)(C1)C2` [Example 132, N-(3-carbamoylbicyclo[1.1.1]pentan-1-yl)-2-(4,4-difluoroazepan-1-yl)-4-methyl-5-(1-methyl-1H-pyrazol-4-yl)nicotinamide], the IC50 runs as follows: under setting [1], greater than 200 nM; under setting [2], greater than 200 nM.
As for `Cc1cc(C(N)=O)nc(N2CCCC(F)(F)CC2)c1C(=O)Nc1cccc([S@](C)(=N)=O)c1` [Example 153, (R)-6-(4,4-difluoroazepan-1-yl)-4-methyl-N5-(3-(S-methylsulfonimidoyl)phenyl)pyridine-2,5-dicarboxamide], the IC50 was greater than 200 nM under setting [1] and greater than 200 nM under setting [2].

The values above are taken from patent US20250154109A1, “SODIUM CHANNEL BLOCKING COMPOUNDS, DERIVATIVES THEREOF, AND METHODS OF THEIR USE” (LATIGO BIOTHERAPEUTICS, INC, priority 2022, published 2025).
